Assay results: article PMC9542353, “Design and synthesis of some new benzoylthioureido phenyl derivatives targeting carbonic anhydrase enzymes” (Journal of Enzyme Inhibition and Medicinal Chemistry, 2022)

Experiments:
hCA IX = hCA IX (Homo sapiens, UniProt Q16790); experiment: stopped flow CO2 hydrase assay, hCA IX
From the text: (§1) A stopped flow CO2 hydrase assay was adopted using an SX.18 MV-R Applied Photophysics (Oxford, UK) stopped-flow instrument to assess the inhibition against the various CA isozymes[33].

hCA I = hCA I (Homo sapiens, UniProt P00915); experiment: stopped flow CO2 hydrase assay, hCA I; conditions: for inhibitory activity against hCA I (in words): abstract statement
From the text: as §1

hCA XII = hCA XII (Homo sapiens, UniProt O43570); experiment: stopped flow CO2 hydrase assay, hCA XII
hCA XII, sequence (O43570 25-354): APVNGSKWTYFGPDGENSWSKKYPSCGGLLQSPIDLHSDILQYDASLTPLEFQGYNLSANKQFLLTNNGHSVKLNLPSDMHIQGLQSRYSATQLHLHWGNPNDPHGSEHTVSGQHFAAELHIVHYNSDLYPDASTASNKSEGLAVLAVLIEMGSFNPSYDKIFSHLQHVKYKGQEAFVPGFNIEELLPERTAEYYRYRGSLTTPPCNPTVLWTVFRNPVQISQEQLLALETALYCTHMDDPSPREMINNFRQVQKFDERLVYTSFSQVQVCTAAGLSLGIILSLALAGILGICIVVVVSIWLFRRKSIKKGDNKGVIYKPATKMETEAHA
From the text: as §1

hCA II = hCA II (Homo sapiens, UniProt P00918); experiment: stopped flow CO2 hydrase assay, hCA II
From the text: as §1

hCAII = conditions: read-out: IC50 against hCAII; cited from earlier work

hCA I, sequence (P00915 whole entry): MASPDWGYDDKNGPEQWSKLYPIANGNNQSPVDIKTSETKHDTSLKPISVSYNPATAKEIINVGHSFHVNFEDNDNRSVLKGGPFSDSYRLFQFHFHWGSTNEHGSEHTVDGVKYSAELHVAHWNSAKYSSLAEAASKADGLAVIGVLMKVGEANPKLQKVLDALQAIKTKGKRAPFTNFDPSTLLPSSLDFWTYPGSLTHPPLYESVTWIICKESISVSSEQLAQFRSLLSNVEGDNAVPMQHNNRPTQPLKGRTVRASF

Row | Compound | Ki (hCA IX) [nM] | Ki (hCA I) [nM] | Ki (hCA XII) [nM] | Ki (hCA II) [nM] | melting point [°C] | inhibitory activity against hCA I (in words) (hCA I) | IC50 (hCAII) [nM]
1 | CCOC(=O)c1ccc(NC(=S)NC(=O)c2ccc(Cl)c(Cl)c2)cc1 [Compound 6c, Ethyl 4-[3-(3,4-dichlorobenzoyl)thioureido]benzoate] | 239 | 809 | > 100000 | > 100000 | 216 to 218 |  | 
2 | NS(=O)(=O)c1ccc(NC(=S)NC(=O)c2ccccc2)cc1 [Compound 4a, N-[(4-Sulphamoylphenyl)carbamothioyl]benzamide] | 106 |  | 57.4 |  |  |  | 
3 | O=C(O)c1ccc(NC(=S)NC(=O)c2ccc(Cl)cc2)cc1 [Compound 5b, 4-[3-(4-Chlorobenzoyl)thioureido]benzoic acid] | > 100000 | 8800 | > 100000 | 5540 | 232 to 240 |  | 
4 | CCOC(=O)c1ccc(NC(=S)NC(=O)c2ccc(Cl)cc2)cc1 [Compound 6b, Ethyl 4-[3-(4-chlorobenzoyl)thioureido]benzoate] | 1400 | > 100000 | > 100000 | > 100000 | 219 to 221 |  | 
5 | CCOC(=O)c1ccc(NC(=S)NC(=O)c2ccccc2)cc1 [Compound 6a, Ethyl-4-(3-benzoylthioureido)benzoate] | 1740 | > 100000 | > 100000 | > 100000 | 223 to 235 |  | 
6 | COc1ccc(NC(=S)NC(=O)c2ccc(C(F)(F)F)cc2)cc1OC [II] |  |  |  |  |  |  | 1900
7 | NS(=O)(=O)c1ccc(NC(=S)NC(=O)c2ccc(Cl)cc2)cc1 [Compound 4b, 4-Chloro-N-[(4-sulfamoylphenyl)carbamothioyl]benzamide] | 115 | 58.5 | > 100000 | 58.1 | 226 to 234 | significant inhibitory activity | 
8 | NS(=O)(=O)c1ccc(NC(=S)NC(=O)c2ccc(Cl)c(Cl)c2)cc1 [Compound 4c, 3,4-Dichloro-N-[(4-sulphamoylphenyl)carbamothioyl]benzamide] | > 100000 | 40.4 | 88.1 | 90 | 206 to 208 | significant inhibitory activity | 
9 | O=C(O)c1ccc(NC(=S)NC(=O)c2ccccc2)cc1 [Compound 5a, 4-(3-Benzoylthioureido)benzoic acid] | 2930 | 1500 | > 100000 | 465 | 212 to 224 |  | 
10 | O=C(O)c1ccc(NC(=S)NC(=O)c2ccc(Br)cc2)cc1 [Compound 5d, 4-[3-(4-Bromobenzoyl)thioureido]benzoic acid] | > 100000 | 5560 | > 100000 | > 100000 | 206 to 215 | significant inhibitory activity | 
11 | O=C(O)c1ccc(NC(=S)NC(=O)c2ccc(Cl)c(Cl)c2)cc1 [Compound 5c, 4-[3-(3,4-Dichlorobenzoyl)thioureido]benzoic acid] | 1740 | > 100000 | > 100000 | 6000 | 216 to 218 |  | 
12 | CC(=O)NC(=S)Nc1ccc(S(N)(=O)=O)cc1 [IV] |  |  |  |  |  |  | 2140
13 | O=C(NC(=S)Nc1ccccc1)c1ccc(C(F)(F)F)cc1 [III] |  |  |  |  |  |  | 2480
14 | CCOC(=O)c1ccc(NC(=S)NC(=O)c2ccc(Br)cc2)cc1 [Compound 6d, Ethyl-4-[3-(4-bromobenzoyl)thioureido]benzoate] | > 100000 | 85.4 | > 100000 | 31 | 218 to 220 |  | 
15 | NS(=O)(=O)c1ccc(NC(=S)NC(=O)c2ccc(Br)cc2)cc1 [Compound 4d, 4-Bromo-N-[(4-sulfamoylphenyl)carbamothioyl]benzamide] | > 100000 | 65 | 82 | 67 | 215 to 217 | significant inhibitory activity | 

Continued, in another order:

Row | Ki (hCA IX) [nM] | Ki (hCA I) [nM] | Ki (hCA XII) [nM] | Ki (hCA II) [nM] | melting point [°C] | inhibitory activity against hCA I (in words) (hCA I) | Compound | IC50 (hCAII) [nM]
16 | 1150 | > 100000 | > 100000 | > 100000 | 237 to 239 |  | CCOC(=O)c1ccc(NC(=S)NC(=O)c2ccc(NC(C)=O)cc2OC)cc1 [Compound 14a, Ethyl-4-[3-(4-acetamido-2-methoxybenzoyl)thioureido]benzoate] | 
17 | 32.2 | 67.6 | 83 | 15.5 | 225 to 227 | significant inhibitory activity | COc1cc(NC(C)=O)ccc1C(=O)NC(=S)Nc1ccc(S(N)(=O)=O)cc1 [Compound 12a, 4-Acetamido-2-methoxy-N-[(4-sulfamoylphenyl)carbamothioyl]benzamide] | 
18 | 144 | 91 | 226 | 94.2 | 250 to 252 | significant inhibitory activity | COc1cc(NC(=O)c2ccc(C)cc2)ccc1C(=O)NC(=S)Nc1ccc(S(N)(=O)=O)cc1 [Compound 12c, 2-Methoxy-4-(4-methylbenzamido)-N-[(4-sulfamoylphenyl)carbamothioyl] benzamide] | 
19 | 1370 | > 100000 | > 100000 | 2020 | 257 to 259 |  | CCOC(=O)c1ccc(NC(=S)NC(=O)c2ccc(NC(=O)c3ccc(C)cc3)cc2OC)cc1 [Compound 14c, Ethyl-4-[3-(2-methoxy-4-(4-methylbenzamido)benzoyl)thioureido]benzoate] | 
20 | 802 | > 100000 | > 100000 | 504 | 281 to 283 |  | COc1cc(NC(=O)c2ccc(C)cc2)ccc1C(=O)NC(=S)Nc1ccc(C(=O)O)cc1 [Compound 13c, 4-(3-(2-Methoxy-4-(4-methylbenzamido)benzoyl)thioureido]benzoic acid] | 
21 | 1500 | > 100000 | > 100000 | > 100000 | 245 to 247 |  | CCOC(=O)c1ccc(NC(=S)NC(=O)c2ccc(NC(=O)C(C)C)cc2OC)cc1 [Compound 14b, Ethyl-4-[3-(4-isobutyramido-2-methoxybenzoyl)thioureido]benzoate] | 
22 | 289 | > 100000 | > 100000 | 193 | 256 to 258 |  | COc1cc(NC(=O)C(C)C)ccc1C(=O)NC(=S)Nc1ccc(C(=O)O)cc1 [Compound 13b] | 
23 | 1780 | > 100000 | > 100000 | 2770 | 248 to 250 |  | COc1cc(NC(=O)C(C)C)ccc1C(=O)NC(=S)Nc1ccc(S(N)(=O)=O)cc1 [Compound 12b, 4-Isobutyramido-2-methoxy-N-[(4-sulfamoylphenyl)carbamothioyl] benzamide] | 
24 | 1090 | 1710 | > 100000 | 647 | 245 to 247 |  | COc1cc(NC(C)=O)ccc1C(=O)NC(=S)Nc1ccc(C(=O)O)cc1 [Compound 13a, 4-[3-(4-Acetamido-2-methoxybenzoyl)thioureido]benzoic acid] | 
